Columns and labels:
AsPC-1 [1] = assay: Colony formation assay; type: cell-based, human; conditions: AsPC-1, 20 µM, 72 h treatment
Method: (§1) A colony formation assay was performed as previously described. Briefly, the PC cells were seeded in 6-well plates, incubated for 24 h, and then treated for 72 h with 20 μM DF5, DF12, and RSV or with vehicle (DMSO) as indicated. After 4 days, following methanol fixation and crystal violet staining, the colonies of at least 30 cells were counted.

BxPC-3 [2] = assay: Colony formation assay; type: cell-based, human; conditions: BxPC-3, 20 µM, 72 h treatment
Method: as §1

Capan-2 [3] = assay: Colony formation assay; type: cell-based, human; conditions: Capan-2, 20 µM, 72 h treatment
Method: as §1

AsPC-1 [4] = assay: Flow cytometry immunophenotyping of CD133+EpCAM+ cancer stem-like subpopulation; type: cell-based, human; conditions: AsPC-1, 20 μM, 72 h
Method: (§2) The expression of CD133 and EpCAM surface antigens was evaluated using flow cytometry. Briefly, the PC cells were seeded in 6-well plates and treated for 72 h with 20 μM DF5, RSV, or with vehicle (DMSO). After treatment, the cells were collected in PBS and stained at room temperature in the dark for 30 min with PE-CD133, FITC-EpCAM antibodies, and Reactive Dye. After labeling, the samples were washed in PBS by centrifugation at 1500 rpm for 10 min, to remove excess antibodies. Flow cytometer performance, stability, and data reproducibility were daily checked by using the CS&T quality control Module (BD Biosciences). The gating strategy and the evaluation of non-specific fluorescence was determined using fluorescence minus one (FMO) controls. The data were acquired with FACSVerse analyzer equipped with a volumetric count module (BD Biosciences, San Jose, CA, USA) and are expressed as the percentage of positive cells.

BxPC-3 [5] = assay: as above; type: cell-based, human; conditions: BxPC-3, 20 μM, 72 h
Method: as §2

Capan-2 [6] = assay: as above; type: cell-based, human; conditions: Capan-2, 20 μM, 72 h
Method: as §2

p-SER^139H2AX = assay: Western blot of phospho-H2AX (γH2AX) in PC cell lines; type: cell-based, human
Method: (§3) The PC cell lines treated with 50 μM DF5, RSV, or with vehicle (DMSO) were lysed in a cell lysis buffer containing PMSF, protease inhibitors cocktails, and phosphatase inhibitors. The protein lysate quantification and immunoblot analyses were performed as previously described.

cyclin B1/CDK1 complex = assay: Western blot of cyclin B1, Cdc2/Cdk1 and p-Cdc2 (Thr161) in PC cell lines; type: cell-based, human; conditions: 50 μM
Method: as §3

[7] = Enzymatic stability in simulated intestinal fluid (SIF) with pancreatin; type: in vitro ADME; conditions: SIF pH 6.8 with pancreatin, 37 °C
Method: The SGF and SIF, containing pepsin and pancreatin, respectively, were prepared following the USP specifications. The reactions were carried out in a shaking water bath at 37 °C. The drug stock solution (10 μL of a 10^−4 M) was added to the preheated gastrointestinal fluids and, at fixed time points (0, 15, 30, and 60 min for SGF and 0, 60, 120, and 180 min for SIF), 20 μL of the media were mixed with 200 μL of cold acetonitrile containing 0.5% v/v of formic acid. The samples were centrifuged for 10 min at 5000× g and the supernatants were analyzed using HPLC. The relative difference (RD%) was used to predict the amount of compound decomposed in the presence of gastrointestinal fluids.

Question: Which “effect on clonogenicity (colony formation)” value (from here on “effect on clonogenicity”) (AsPC-1 [1]) does the source give for `Cc1ccc(/C=C/c2ccc(O)cc2)cc1` [DF5] here?
Answer: totally abolish colony formation

Question: What about the “effect on clonogenicity” value (BxPC-3 [2]) of the same compound?
Answer: totally abolish colony formation

Question: And the “effect on clonogenicity” value (Capan-2 [3])?
Answer: more drastic, prominent, and consistent effects on PC cell clonogenicity

Question: And the “effect on percentage of CD133+EpCAM+ cancer stem-like subpopulation” value (from here on “effect on percentage”) (AsPC-1 [4])?
Answer: sharp and statistically significant reduction

Question: What about the “effect on percentage” value (BxPC-3 [5]) of the same compound?
Answer: statistically significant impact

Question: And the “effect on percentage” value (Capan-2 [6])?
Answer: sharp and statistically significant reduction

Question: What about the “activation (phosphorylation) of H2AX” value (p-SER^139H2AX; AsPC-1, 50 μM) of the same compound?
Answer: marked activation of H2AX

Question: What about the “activation (phosphorylation) of H2AX” value (p-SER^139H2AX; BxPC-3, 50 μM) of the same compound?
Answer: negligible activation

Question: What about the “activation (phosphorylation) of H2AX” value (p-SER^139H2AX; Capan-2, 50 μM) of the same compound?
Answer: less marked

Question: And the “effect on expression of the cyclin B1/CDK1 complex” value (cyclin B1/CDK1 complex; AsPC-1 and Capan-2, also Cdc2/CDK1 dephosphorylation at Thr-161)?
Answer: reduction in the expression of the cyclin B1/CDK1 complex

Question: And the “effect on expression of the cyclin B1/CDK1 complex” value (cyclin B1/CDK1 complex; BxPC-3)?
Answer: much less evident

Question: What about the “RD% (relative difference)” value ([7]; 60 min) of the same compound?
Answer: 8.12%

Question: What about the “RD% (relative difference)” value ([7]; 120 min) of the same compound?
Answer: 9.20%

Question: What about the “RD% (relative difference)” value ([7]; 180 min) of the same compound?
Answer: 9.36%

Source: publication PMC9916441, “Resveratrol Derivative Exhibits Marked Antiproliferative Actions, Affecting Stemness in Pancreatic Cancer Cells” (International Journal of Molecular Sciences, 2023)
